Assay results published in patent publication US8809627B2, “Plant isoflavone and isoflavanone O-methyltransferase genes” (The Samuel Roberts Noble Foundation, Inc., priority 2006, dated 2014).

Legend:
MtIOMT5 = target: T1, MtIOMT5 (Medicago truncatula, UniProt Q29U70); assay: OMT assays with purified recombinant MtIOMT5 (relative activity; HPLC/MS of products); format: biochemical; conditions: for Relative activity, MtIOMT5: 50 μM S-adenosyl methionine, 100 μM acceptor substrate, most converted substrate = 100%; for Position of methylation / reaction products, MtIOMT5: HPLC against standards, tandem MS
T1 construct: His-tag (N); made in house; host or cells: E. coli BL21(DE3)
T1 sequence (Q29U70 1-364): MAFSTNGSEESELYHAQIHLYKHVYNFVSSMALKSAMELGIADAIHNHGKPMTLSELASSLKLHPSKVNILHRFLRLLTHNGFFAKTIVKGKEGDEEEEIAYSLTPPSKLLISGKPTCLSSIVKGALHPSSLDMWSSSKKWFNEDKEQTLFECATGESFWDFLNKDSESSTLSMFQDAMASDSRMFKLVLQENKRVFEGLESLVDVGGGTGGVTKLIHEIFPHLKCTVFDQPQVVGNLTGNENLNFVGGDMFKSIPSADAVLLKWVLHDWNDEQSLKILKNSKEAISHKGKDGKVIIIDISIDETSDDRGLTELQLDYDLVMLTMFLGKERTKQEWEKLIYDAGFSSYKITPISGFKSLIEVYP
Description: (§1) Cloning of MtIOMT5 (corresponding to TC 100926, TIGR MtGI v.8) was as described previously (Liu et al., 2005). To obtain a full-length cDNA for MtIOMT2, specific primers designed based upon the M. truncatula genomic sequence were used to amplify the MtIOMT2 coding sequence from M. truncatula root cDNA. The amplified product was cloned into the pGEM®-T easy vector (Promega, Madison Wis.) and sequenced to confirm its identity. MtIOMTs were cloned into the pET28a vector (EMD Biosciences, Inc., San Diego, Calif.) using PCR-based amplification with primers designed to introduce EcoRI and XhoI restriction sites; BamHI and XhoI sites were used for cloning MtIOMT6 due to the presence of an internal EcoRI site in this particular cDNA. Because the EST for MtIOMT8 was missing a start codon, the primer designed to clone MtIOMT8 into pET28a contained an additional 2-nucleotide insertion to generate an ATG start site. All MtIOMTs were expressed as translational fusions to an N-terminal His-tag. Expression of MtIOMTs in E. coli BL21(DE3) and purification by Ni^2+-NTA chromatography were as described (Zubieta et al., 2001). Proteins were dialyzed against 20 mM Tris pH 8.0, 100 mM NaCl, 10% (v/v) glycerol, and 14 mM β-mercaptoethanol. Protein concentration was determined by Bradford assay using BSA as a standard (Bradford, 1976).
(§2) Reactions (200 μl) were performed in 0.1 M potassium phosphate, pH 7.4, 10% (w/v) sucrose, 14 mM β-mercaptoethanol with 10 μM protein, 0.5 mM S-adenosyl-L-methionine, and 80 μM phenolic substrates. All substrates were purchased from Indofine (Hillsborough, N.J.) except 6,7-dihydroxy-4′-methoxyisoflavone, dihydrodaidzein, and vestitol, which were purchased from Apin (Oxfordshire, UK). […] OMT assays were incubated at 30° C. for 2 h and extracted with ethyl acetate. Ethyl acetate extracts were dried under N2 and the resultant material was resuspended in 50-100 μl of methanol. Samples were analyzed on an Agilent 1100 HPLC, equipped with a quaternary pump (model #G1311A), a degasser (model #G1322A), an autosampler (model #G1313A), and a diode array detector (model #G1315A). Samples of 20 μl were applied to an ODS2 reverse-phase column (5 μm particle size, 4.6×250 mm) and eluted in 1% (v/v) phosphoric acid with an increasing gradient of acetonitrile (0-5 min, 25%; 5-35 min, 25-50%; 35-39 min, 50-100%) at a flow rate of 1 ml/min. To resolve the 4′-O-methylated and 7-O-methylated products of genistein, samples were applied to a Phenomenex SYNERGI Polar-RP 80 Å column (4 μm particle size, 4.6×250 mm) and eluted in water with an increasing gradient of acetonitrile (0-5 min, 20%; 5-17 min, 20-38%; 17-33 min, 38%; 33-45 min, 38-56%; 45-46 min, 56-100%) at a flow rate of 1 ml/min. Chiral chromatography was performed as described (Liu et al., 2005).
(§3) For determination of specific activities, reactions (100 μl) were performed in 0.1 M potassium phosphate, pH 7.4, 10% (w/v) sucrose, 14 mM β-mercaptoethanol with 0.2-μg protein, 50 μM S-adenosyl-L-methionine (0.025 μCi ^14C-SAM per reaction), and 100 μM substrate. Reactions were incubated at 30° C. for 15-25 min and stopped by addition of 4 μl of 1N HCl. Products were extracted into 500 μl of ethyl acetate and 400 μl was used for liquid scintillation counting.
(§4) An HP 1100 series II LC system (Hewlett-Packard, Palo Alto, Calif.) with a photodiode array detector was coupled to a Bruker Esquire ion-trap mass spectrometer (ITMS) equipped with an electrospray ionization source. A reverse phase, C18, 5 μm, 4.6×250 mm column (J. T. Baker, Phillipsburg, N.J.) was used for separations. The mobile phase consisted of 0.1% (v/v) acetic acid using linear gradients of 5-90% acetonitrile (v/v) in 70 min. The flow rate was 0.8 ml/min, and the temperature of the column was kept at 28° C. Both positive- and negative-ion mass spectra were acquired. […]

MtIOMT4 = assay: OMT assays with purified recombinant MtIOMT4 (relative activity; HPLC of products); format: biochemical, Medicago truncatula; conditions: for Relative activity, MtIOMT4: 50 μM S-adenosyl methionine, 100 μM acceptor substrate, most converted substrate = 100%
Description: as §1, §2
as §3, with “counting. […]” for “counting.”

MtIOMT6 = assay: OMT assays with purified recombinant MtIOMT6 (relative activity; HPLC/MS of products); format: biochemical, Medicago truncatula; conditions: 50 μM S-adenosyl methionine, 100 μM acceptor substrate; most converted substrate = 100%
Description: as §1, §2, §3, §4

MtIOMT3 = assay: OMT assays with purified recombinant MtIOMT3 (relative activity; HPLC/MS of products); format: biochemical, Medicago truncatula; conditions: 50 μM S-adenosyl methionine, 100 μM acceptor substrate; most converted substrate = 100%
Description: as §1, §2, §3, §4

MtIOMT2 = assay: OMT assays with purified recombinant MtIOMT2 (relative activity; HPLC/MS of products); format: biochemical, Medicago truncatula; conditions: for Relative activity, MtIOMT2: 50 μM S-adenosyl methionine, 100 μM acceptor substrate, most converted substrate (daidzein) = 100%
Description: as §1, §2, §3, §4

| Compound | Relative activity, MtIOMT5 (MtIOMT5) | Relative activity, MtIOMT4 (MtIOMT4) [%] | Relative activity, MtIOMT6 (MtIOMT6) [%] | Relative activity, MtIOMT3 (MtIOMT3) | Relative activity, MtIOMT2 (MtIOMT2) | Activity of MtIOMT4 (in words) (MtIOMT4) | Efficiency of methylation by MtIOMT2 (in words) (MtIOMT2) | Position of methylation / reaction products, MtIOMT5 (MtIOMT5) |
| --- | --- | --- | --- | --- | --- | --- | --- | --- |
| O=c1c(-c2ccc(O)cc2)coc2cc(O)c(O)cc12 [6,7,4′-trihydroxyisoflavone] | 0% | 0 | 0 | 100% | 35.3% |  |  |  |
| COc1ccc(-c2coc3cc(O)c(O)cc3c2=O)cc1 [6,7-dihydroxy,4′-methoxyisoflavone] | 0% | 0 | 0 | 0% | 0% |  |  |  |
| O=c1c(-c2ccc(O)c(O)c2)coc2cc(O)ccc12 [7,3′,4′-trihydroxyisoflavone] | 0% | 0 | 0 | 52.9% | 43.1% |  |  |  |
| O=c1cc(-c2ccc(O)cc2)oc2cc(O)ccc12 [7,4′-dihydroxyflavone] | 0% | 0 | 0 | 0% | ≦1% |  |  |  |
| O=c1cc(-c2ccc(O)cc2)oc2cc(O)cc(O)c12 [Apigenin] | 0% | 0 | 0 | 0% | 0% |  |  |  |
| O=c1oc2cc(O)ccc2c2oc3cc(O)ccc3c12 [Coumestrol] | 0% | 100 | 0 | 0% | ≦1% | low level, trace activity | low efficiency |  |
| O=c1c(-c2ccc(O)cc2)coc2cc(O)ccc12 [Daidzein] | 0% | 0 | 0 | ≦1% | 100% |  |  |  |
| O=C1c2ccc(O)cc2OCC1c1ccc(O)cc1 (stereo not drawn) [Dihydrodaidzein] | 7.9% | 0 | 100 | 49.4% | 70.1% |  |  | 4′-methoxy, 7-methoxy, and 4′,7-dimethoxy products |
| O=c1c(-c2ccc(O)cc2)coc2cc(O)cc(O)c12 [Genistein] | 0% | 0 | 0 | 73.7% | 61% |  |  |  |
| COc1cc2c(=O)c(-c3ccc(O)cc3)coc2cc1O [Glycitein] | 0% | 0 | 0 | 51.6% | 38.9% |  |  |  |
| O=c1c(O)c(-c2cc(O)c(O)c(O)c2)oc2cc(O)cc(O)c12 [Myricetin] | 0% | 0 | 0 | 0% | 0% |  |  |  |
| O=C1C[C@@H](c2ccc(O)cc2)Oc2cc(O)cc(O)c21 [Naringenin] | ≦1% | 0 | 0 | 0% | ≦1% |  | low efficiency | methylated on the 4′-positions |
| COc1ccc(C2COc3cc(O)ccc3C2)c(O)c1 (stereo not drawn) [Vestitol] | ≦1% | 43.8 | 66.2 | 0% | ≦1% | low level, trace activity | low efficiency |  |
